In patent publication US20240082223A1, “DIHYDROFUROPYRIDINE DERIVATIVES AS RHO- KINASE INHIBITORS” (CHIESI FARMACEUTICI S.P.A., priority 2020, published 2024):

Columns and labels:
ROCK1 = ROCK1 (Homo sapiens, UniProt Q13464); assay: In vitro inhibitory activity assay ROCK1 (Method A, ADP-Glo, 10 μM ATP); format: biochemical; settings: ATP 10 μM, read-out: Method A ROCK 1 (Ki)
Description: (§1) In vitro inhibitory activity assay description ROCK1 and ROCK2
(§2) The effectiveness of compounds of the present invention to inhibit Rho kinase activity can be determined in a 10 μl assay containing 40 mM Tris pH7.5, 20 mM MgCl2 0.1 mg/mL BSA, 50 μM DTT and 2.5 μM peptide substrate (Myelin Basic Protein) using an ADP-Glo kit (Promega). Compounds were dissolved in DMSO such that the final concentration of DMSO was 1% in the assay. All reactions/incubations are performed at 25° C. Compound (2 uL) and either Rho kinase 1 or 2 (4 μl) were mixed and incubated for 30 min. Reactions were initiated by addition of ATP (4 μL) such that the final concentration of ATP in the assay was 10 μM. After a 1 hour incubation […] of ADP-Glo Reagent was added and after a further 45 minutes incubation 20 uL of Kinase Detection Buffer was added and the mixture incubated for a further 30 minutes. The luminescent signal was measured on a luminometer. […] Compounds were tested in dose-response format and the inhibition of kinase activity was calculated at each concentration of compound. To determine the IC50 (concentration of compound required to inhibit 50% of the enzyme activity) data were fit to a plot of % inhibition vs Log10 compound concentration using a sigmoidal fit with a variable slope and fixing the maximum to 100% and the minimum to 0%. To determine the Ki values the Cheng-Prusoff equation was utilized (Ki=IC50/(1+[S]/Km).

ROCK2 = ROCK2 (Homo sapiens, UniProt O75116); assay: In vitro inhibitory activity assay ROCK2 (Method A, ADP-Glo, 10 μM ATP); format: biochemical; settings: ATP 10 μM, read-out: Method A ROCK 2 (Ki)
Description: as §1, §2

Chain of ROCK1 (Q13464 whole entry): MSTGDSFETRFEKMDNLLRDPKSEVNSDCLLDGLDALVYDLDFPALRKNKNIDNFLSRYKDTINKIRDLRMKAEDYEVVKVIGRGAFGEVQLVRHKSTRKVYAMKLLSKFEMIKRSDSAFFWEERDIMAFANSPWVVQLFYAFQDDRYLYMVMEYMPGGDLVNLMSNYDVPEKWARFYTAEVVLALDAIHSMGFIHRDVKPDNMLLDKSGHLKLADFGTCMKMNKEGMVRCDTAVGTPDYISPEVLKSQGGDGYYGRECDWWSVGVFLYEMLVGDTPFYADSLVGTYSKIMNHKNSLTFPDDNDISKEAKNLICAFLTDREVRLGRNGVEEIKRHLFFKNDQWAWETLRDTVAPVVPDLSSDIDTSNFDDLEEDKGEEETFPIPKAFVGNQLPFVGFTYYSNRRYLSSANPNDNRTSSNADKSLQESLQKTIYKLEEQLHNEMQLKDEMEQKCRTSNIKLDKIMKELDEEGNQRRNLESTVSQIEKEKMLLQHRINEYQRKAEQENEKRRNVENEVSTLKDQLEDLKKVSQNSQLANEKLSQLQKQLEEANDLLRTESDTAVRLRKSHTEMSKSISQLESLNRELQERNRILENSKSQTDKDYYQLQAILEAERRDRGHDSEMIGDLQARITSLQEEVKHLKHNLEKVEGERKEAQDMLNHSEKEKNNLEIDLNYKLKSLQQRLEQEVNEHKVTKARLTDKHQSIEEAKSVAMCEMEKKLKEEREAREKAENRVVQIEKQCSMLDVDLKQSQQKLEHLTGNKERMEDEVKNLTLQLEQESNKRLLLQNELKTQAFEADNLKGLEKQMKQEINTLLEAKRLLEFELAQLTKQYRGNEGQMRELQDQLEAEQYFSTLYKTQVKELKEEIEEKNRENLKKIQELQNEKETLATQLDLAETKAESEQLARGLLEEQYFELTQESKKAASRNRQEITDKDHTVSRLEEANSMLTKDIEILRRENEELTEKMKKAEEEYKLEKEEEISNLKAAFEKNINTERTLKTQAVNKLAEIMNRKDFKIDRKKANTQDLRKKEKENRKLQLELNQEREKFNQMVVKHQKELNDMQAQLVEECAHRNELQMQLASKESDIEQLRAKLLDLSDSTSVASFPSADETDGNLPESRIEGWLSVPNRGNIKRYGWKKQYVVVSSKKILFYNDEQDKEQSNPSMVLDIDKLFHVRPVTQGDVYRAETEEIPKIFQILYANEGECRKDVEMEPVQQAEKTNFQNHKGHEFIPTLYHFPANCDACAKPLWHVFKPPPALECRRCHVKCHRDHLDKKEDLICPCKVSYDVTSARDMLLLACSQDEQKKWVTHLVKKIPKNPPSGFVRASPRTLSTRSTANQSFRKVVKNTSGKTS
Chain of ROCK2 (O75116 whole entry): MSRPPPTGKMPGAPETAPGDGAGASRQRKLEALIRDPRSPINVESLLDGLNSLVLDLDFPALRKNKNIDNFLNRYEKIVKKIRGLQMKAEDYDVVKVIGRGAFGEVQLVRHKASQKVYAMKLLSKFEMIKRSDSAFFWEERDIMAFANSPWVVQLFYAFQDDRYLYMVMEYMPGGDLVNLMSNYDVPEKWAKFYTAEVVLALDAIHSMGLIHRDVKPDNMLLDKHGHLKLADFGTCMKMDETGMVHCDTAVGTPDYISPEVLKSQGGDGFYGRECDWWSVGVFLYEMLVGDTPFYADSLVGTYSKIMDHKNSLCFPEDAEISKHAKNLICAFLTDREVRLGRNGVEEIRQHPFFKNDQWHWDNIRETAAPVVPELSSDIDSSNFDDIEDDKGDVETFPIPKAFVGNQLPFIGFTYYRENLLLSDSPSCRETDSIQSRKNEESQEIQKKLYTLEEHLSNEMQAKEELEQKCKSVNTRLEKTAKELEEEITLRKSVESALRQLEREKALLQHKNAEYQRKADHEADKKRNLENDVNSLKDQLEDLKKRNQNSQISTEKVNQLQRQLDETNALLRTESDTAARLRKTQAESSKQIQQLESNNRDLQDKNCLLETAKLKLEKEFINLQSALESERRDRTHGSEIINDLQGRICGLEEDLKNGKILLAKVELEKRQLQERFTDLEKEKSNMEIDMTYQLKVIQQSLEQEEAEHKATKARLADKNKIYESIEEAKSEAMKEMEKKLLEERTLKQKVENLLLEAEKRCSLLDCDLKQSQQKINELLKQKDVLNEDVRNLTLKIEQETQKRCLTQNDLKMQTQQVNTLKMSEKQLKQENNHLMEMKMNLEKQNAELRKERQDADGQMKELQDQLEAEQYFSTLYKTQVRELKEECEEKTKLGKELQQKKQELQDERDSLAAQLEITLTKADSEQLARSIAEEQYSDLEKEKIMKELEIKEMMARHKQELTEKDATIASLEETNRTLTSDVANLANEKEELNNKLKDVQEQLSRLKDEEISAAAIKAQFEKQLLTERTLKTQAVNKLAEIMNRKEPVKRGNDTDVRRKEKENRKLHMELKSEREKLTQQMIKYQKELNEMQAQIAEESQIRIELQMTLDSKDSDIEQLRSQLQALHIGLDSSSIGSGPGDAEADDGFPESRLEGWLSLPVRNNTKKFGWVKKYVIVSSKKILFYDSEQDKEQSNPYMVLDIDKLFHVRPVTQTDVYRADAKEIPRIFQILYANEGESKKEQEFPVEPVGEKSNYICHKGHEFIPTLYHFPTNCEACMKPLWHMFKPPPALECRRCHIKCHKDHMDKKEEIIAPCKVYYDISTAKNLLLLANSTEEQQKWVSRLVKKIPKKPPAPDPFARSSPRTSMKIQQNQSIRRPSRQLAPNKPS

Row | Ki (ROCK1) [nM] | Ki (ROCK2) [nM] | SMILES
1 | ≤ 3 | ≤ 3 | O=C(NCCc1ccncc1)c1cccc(CNc2ncc(-c3cn[nH]c3)c3c2CCO3)c1 [Example 17, 3-(((7-(1H-pyrazol-4-yl)-2,3-dihydrofuro[3,2-c]pyridin-4-yl)amino)methyl)-N-(2-(pyridin-4-yl)ethyl)benzamide]
2 | ≤ 3 | ≤ 3 | CN(C)Cc1cccc(NC(=O)c2cccc(CNc3ncc(-c4cn[nH]c4)c4c3CCO4)c2)c1 [Example 18, 3-(((7-(1H-pyrazol-4-yl)-2,3-dihydrofuro[3,2-c]pyridin-4-yl)amino)methyl)-N-(3-((dimethylamino)methyl)phenyl)benzamide]
3 | ≤ 3 | ≤ 3 | CN(C)Cc1cccc(CNC(=O)c2cccc(CNc3ncc(-c4cn[nH]c4)c4c3CCO4)c2)c1 [Example 19, 3-(((7-(1H-pyrazol-4-yl)-2,3-dihydrofuro[3,2-c]pyridin-4-yl)amino)methyl)-N-(3-((dimethylamino)methyl)benzyl)benzamide]
4 | ≤ 3 | ≤ 3 | O=C(NCCN1CCOCC1)c1cccc(CNc2ncc(-c3cn[nH]c3)c3c2CCO3)c1 [Example 20, 3-(((7-(1H-pyrazol-4-yl)-2,3-dihydrofuro[3,2-c]pyridin-4-yl)amino)methyl)-N-(2-morpholinoethyl)benzamide]
5 | ≤ 3 | ≤ 3 | CN1CCc2nc(NC(=O)c3cccc(CNc4ncc(-c5cn[nH]c5)c5c4CCO5)c3)sc2C1 [Example 21, 3-(((7-(1H-pyrazol-4-yl)-2,3-dihydrofuro[3,2-c]pyridin-4-yl)amino)methyl)-N-(5-methyl-4,5,6,7-tetrahydrothiazolo[5,4-c]pyridin-2-yl)benzamide]
6 | ≤ 3 | ≤ 3 | O=C(NCCc1cccnc1)c1cccc(CNc2ncc(-c3cn[nH]c3)c3c2CCO3)c1 [Example 22, 3-(((7-(1H-pyrazol-4-yl)-2,3-dihydrofuro[3,2-c]pyridin-4-yl)amino)methyl)-N-(2-(pyridin-3-yl)ethyl)benzamide]
7 | ≤ 3 | ≤ 3 | O=C(N[C@H](CO)c1ccccc1)c1cccc(CNc2ncc(-c3cn[nH]c3)c3c2CCO3)c1 [Example 23, (S)-3-(((7-(1H-pyrazol-4-yl)-2,3-dihydrofuro[3,2-c]pyridin-4-yl)amino)methyl)-N-(2-hydroxy-1-phenylethyl)benzamide]
8 | ≤ 3 | ≤ 3 | CN(C)Cc1ccc(CNC(=O)c2cccc(CNc3ncc(-c4cn[nH]c4)c4c3CCO4)c2)cc1 [Example 24, 3-(((7-(1H-pyrazol-4-yl)-2,3-dihydrofuro[3,2-c]pyridin-4-yl)amino)methyl)-N-(4-((dimethylamino)methyl)benzyl)benzamide]
9 | ≤ 3 | ≤ 3 | Cc1ccc(CNC(=O)c2cccc(CNc3ncc(-c4cn[nH]c4)c4c3CCO4)c2)s1 [Example 25, 3-(((7-(1H-pyrazol-4-yl)-2,3-dihydrofuro[3,2-c]pyridin-4-yl)amino)methyl)-N-((5-methylthiophen-2-yl)methyl)benzamide]
10 | ≤ 3 | ≤ 3 | O=C(NC1CCN(CCc2ccccc2)CC1)c1cccc(CNc2ncc(-c3cn[nH]c3)c3c2CCO3)c1 [Example 26, 3-(((7-(1H-pyrazol-4-yl)-2,3-dihydrofuro[3,2-c]pyridin-4-yl)amino)methyl)-N-(1-phenethylpiperidin-4-yl)benzamide]
11 | ≤ 3 | ≤ 3 | CN(C)CCn1cc(NC(=O)c2cccc(CNc3ncc(-c4cn[nH]c4)c4c3CCO4)c2)cn1 [Example 27, 3-(((7-(1H-pyrazol-4-yl)-2,3-dihydrofuro[3,2-c]pyridin-4-yl)amino)methyl)-N-(1-(2-(dimethylamino)ethyl)-1H-pyrazol-4-yl)benzamide]
12 | 3 to 30 | ≤ 3 | CN1CCc2nc(CNC(=O)c3cccc(CNc4ncc(-c5cn[nH]c5)c5c4CCO5)c3)sc2C1 [Example 29, 3-(((7-(1H-pyrazol-4-yl)-2,3-dihydrofuro[3,2-c]pyridin-4-yl)amino)methyl)-N-((5-methyl-4,5,6,7-tetrahydrothiazolo[5,4-c]pyridin-2-yl)methyl)benzamide]
13 | ≤ 3 | ≤ 3 | CN1Cc2ccc(CNC(=O)c3cccc(CNc4ncc(-c5cn[nH]c5)c5c4CCO5)c3)cc2C1 [Example 30, 3-(((7-(1H-pyrazol-4-yl)-2,3-dihydrofuro[3,2-c]pyridin-4-yl)amino)methyl)-N-((2-methylisoindolin-5-yl)methyl)benzamide]
14 | ≤ 3 | ≤ 3 | CN(C)Cc1ccc(C(=O)Nc2cccc(CNc3ncc(-c4cn[nH]c4)c4c3CCO4)c2)cc1 [Example 35, N-(3-(((7-(1H-Pyrazol-4-yl)-2,3-dihydrofuro[3,2-c]pyridin-4-yl)amino)methyl)phenyl)-4-((dimethylamino)methyl)benzamide]
15 | ≤ 3 | ≤ 3 | CN1CCc2sc(C(=O)Nc3cccc(CNc4ncc(-c5cn[nH]c5)c5c4CCO5)c3)nc2C1 [Example 36, N-(3-(((7-(1H-pyrazol-4-yl)-2,3-dihydrofuro[3,2-c]pyridin-4-yl)amino)methyl)phenyl)-5-methyl-4,5,6,7-tetrahydrothiazolo[4,5-c]pyridine-2-carboxamide]
16 | ≤ 3 | ≤ 3 | CN1CCc2nc(C(=O)Nc3cccc(CNc4ncc(-c5cn[nH]c5)c5c4CCO5)c3)sc2C1 [Example 37, N-(3-(((7-(1H-pyrazol-4-yl)-2,3-dihydrofuro[3,2-c]pyridin-4-yl)amino)methyl)phenyl)-5-methyl-4,5,6,7-tetrahydrothiazolo[5,4-c]pyridine-2-carboxamide]
17 | ≤ 3 | ≤ 3 | O=C(Nc1cccc(CNc2ncc(-c3cn[nH]c3)c3c2CCO3)c1)c1nc2c(s1)CN(CCO)CC2 [Example 38, N-(3-(((7-(1H-pyrazol-4-yl)-2,3-dihydrofuro[3,2-c]pyridin-4-yl)amino)methyl)phenyl)-5-(2-hydroxyethyl)-4,5,6,7-tetrahydrothiazolo[5,4-c]pyridine-2-carboxamide]
18 | ≤ 3 | ≤ 3 | Cn1ncc2cc(C(=O)Nc3cccc(CNc4ncc(-c5cn[nH]c5)c5c4CCO5)c3)ccc21 [Example 39, N-(3-(((7-(1H-pyrazol-4-yl)-2,3-dihydrofuro[3,2-c]pyridin-4-yl)amino)methyl)phenyl)-1-methyl-1H-indazole-5-carboxamide]
19 | ≤ 3 | ≤ 3 | O=C(Nc1cccc(CNc2ncc(-c3cn[nH]c3)c3c2CCO3)c1)c1ccc2c(c1)CCNC2 [Example 40, N-(3-(((7-(1H-pyrazol-4-yl)-2,3-dihydrofuro[3,2-c]pyridin-4-yl)amino)methyl)phenyl)-1,2,3,4-tetrahydroisoquinoline-6-carboxamide]
20 | > 30 | 3 to 30 | Cn1nc(C(=O)Nc2cccc(CNc3ncc(-c4cn[nH]c4)c4c3CCO4)c2)c2ccccc21 [Example 41, N-(3-(((7-(1H-pyrazol-4-yl)-2,3-dihydrofuro[3,2-c]pyridin-4-yl)amino)methyl)phenyl)-1-methyl-1H-indazole-3-carboxamide]
21 | 3 to 30 | ≤ 3 | Cn1ncc2c(C(=O)Nc3cccc(CNc4ncc(-c5cn[nH]c5)c5c4CCO5)c3)cccc21 [Example 42, N-(3-(((7-(1H-pyrazol-4-yl)-2,3-dihydrofuro[3,2-c]pyridin-4-yl)amino)methyl)phenyl)-1-methyl-1H-indazole-4-carboxamide]
